The term IC50 denotes the concentration needed to halve the response being measured.

The record followed here is US6905852B1, “Herbicide-resistant protoporphyrinogen oxidase isolated from Nicotiana tabacum” (Nihon Nohyaku Co., Ltd., priority 1997, dated 2005).

Bounds are passed on as bounds.

Test [1] has as its system non-transformed tobacco plant. In words: Leaf disk method, bleaching. In kind it is cell-based, N. Tabacum var. SR1. The method, then:
From the transformed plant with which the confirmation of introduction of gene was finished, and non-transformed plant used as a control, a leaf almost the same position of the leaf was picked and 9 mm diameter leaf disks were prepared, and floated on a dish in which 0, 125, 250, 1,250, 2,500, 5,000, 12,500 nM of compound A aqueous solution were contained. After incubation at 27° C. for one week under continuous strong light, the bleaching of the leaf disks was observed, and the permissive concentration to compound A was calculated. As a result (Table 7), in case that the tolerant type of protoporphirinogen oxidase cDNA from tobacco was introduced by pBI-NtPX-RC, more than 100 times of tolerance was observed comparing to the control non-transformed plant. However, in case that rsistant type cDNA from Arabidopsis thaliana was introduced by pBI-AtPX-RC, 4 times of resistance was observed comparing to the control, and in case that the wild type cDNA was introduced, high resistance was not observed in each case.

For test [2], the target named is T1, E. coli SASX38 strain having pCR-RC with tobacco resistant type protoporphyrinogen oxidase gene (Nicotiana tabacum, UniProt O24163, A174P/A191P/A231V/T382S).
T1 construct: expressed in transfected cells; host or cells: E. coli SASX38 (hemG-deficient) carrying pCR-RC
T1 sequence (O24163 whole entry A174P/A191P/A231V/T382S): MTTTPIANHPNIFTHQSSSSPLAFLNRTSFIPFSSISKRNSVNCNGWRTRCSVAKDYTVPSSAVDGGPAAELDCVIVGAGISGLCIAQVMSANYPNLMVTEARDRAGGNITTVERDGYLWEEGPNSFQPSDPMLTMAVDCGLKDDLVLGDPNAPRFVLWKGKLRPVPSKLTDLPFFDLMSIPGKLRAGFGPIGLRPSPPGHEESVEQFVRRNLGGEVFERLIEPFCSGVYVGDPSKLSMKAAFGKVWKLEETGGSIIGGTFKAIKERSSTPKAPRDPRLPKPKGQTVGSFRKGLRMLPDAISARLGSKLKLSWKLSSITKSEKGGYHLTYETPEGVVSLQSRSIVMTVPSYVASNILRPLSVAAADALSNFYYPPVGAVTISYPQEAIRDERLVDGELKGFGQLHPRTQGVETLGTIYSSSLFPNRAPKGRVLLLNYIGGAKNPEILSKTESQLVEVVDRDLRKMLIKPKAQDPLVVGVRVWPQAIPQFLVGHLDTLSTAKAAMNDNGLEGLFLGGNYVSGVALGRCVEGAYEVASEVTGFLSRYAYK
Briefly: Growth inhibition of E. coli SASX38 (liquid culture with shaking). In kind it is cell-based. The method, then: (§1) The E. coli SASX38 strain containing either of the above-described two kinds of plasmid was cultured with shaking in LB liquid medium containing 50 μg/ml of ampicillin at 28° C. for overnight.

In test [3] the target is T2, E. coli SASX38 strain having pBAtPX-C with Arabidopsis thaliana wild type protoporphyrinogen oxidase gene (Arabidopsis thaliana, UniProt P55826).
T2 construct: expressed in transfected cells; host or cells: E. coli SASX38 (hemG-deficient) carrying pBAtPX-C (pBluescript SK(-))
T2 sequence (P55826 35-537): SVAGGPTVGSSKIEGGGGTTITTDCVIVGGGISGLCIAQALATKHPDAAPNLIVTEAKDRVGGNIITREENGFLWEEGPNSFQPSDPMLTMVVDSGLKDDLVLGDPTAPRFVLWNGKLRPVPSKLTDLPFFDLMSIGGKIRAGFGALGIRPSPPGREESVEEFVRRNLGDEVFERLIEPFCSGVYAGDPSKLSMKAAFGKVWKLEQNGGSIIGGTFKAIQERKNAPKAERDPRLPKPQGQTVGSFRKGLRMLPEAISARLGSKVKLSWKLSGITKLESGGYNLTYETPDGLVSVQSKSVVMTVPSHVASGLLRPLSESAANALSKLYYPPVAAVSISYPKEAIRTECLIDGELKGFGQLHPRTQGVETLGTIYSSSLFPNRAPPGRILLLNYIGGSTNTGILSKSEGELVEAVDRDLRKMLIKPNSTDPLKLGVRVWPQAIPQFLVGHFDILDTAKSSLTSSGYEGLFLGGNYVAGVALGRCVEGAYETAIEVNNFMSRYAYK
Described as above. To be noted: Arabidopsis thaliana wild type (pBAtPX-C); read-out: IC50, growth of E. coli. Format: cell-based. The method, then:
as §1

The test system of test [4] is E. coli SASX38 strain having pCR-RC with tobacco resistant type protoporphyrinogen oxidase gene. Described as above. In kind it is cell-based, Nicotiana tabacum. To be noted: tobacco. Here is the method: as §1
Test [5] deals with T3, E. coli SASX38 strain having pCR-HC with tobacco wild type protoporphyrinogen oxidase cDNA (Nicotiana tabacum, UniProt O24163).
T3 construct: expressed in transfected cells; host or cells: E. coli SASX38 (hemG-deficient) carrying pCR-HC
T3 sequence (O24163 51-548): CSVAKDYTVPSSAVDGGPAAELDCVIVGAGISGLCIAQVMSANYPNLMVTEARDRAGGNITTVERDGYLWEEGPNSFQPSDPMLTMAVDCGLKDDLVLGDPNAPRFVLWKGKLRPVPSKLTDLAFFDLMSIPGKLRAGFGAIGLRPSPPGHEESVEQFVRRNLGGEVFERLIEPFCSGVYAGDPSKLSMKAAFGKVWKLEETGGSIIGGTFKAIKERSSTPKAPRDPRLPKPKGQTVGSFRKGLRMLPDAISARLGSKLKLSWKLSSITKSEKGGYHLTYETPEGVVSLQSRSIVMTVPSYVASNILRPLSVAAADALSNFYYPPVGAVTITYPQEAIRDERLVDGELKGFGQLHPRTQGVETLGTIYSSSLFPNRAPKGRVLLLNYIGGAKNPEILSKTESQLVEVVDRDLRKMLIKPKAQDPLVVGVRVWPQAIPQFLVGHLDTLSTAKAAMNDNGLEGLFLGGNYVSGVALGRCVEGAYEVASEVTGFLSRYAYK
The test is described as above. Format: cell-based. As to conditions: E. coli containing pCR-HC; read-out: IC50, growth of E. coli inhibited by 50%. Here is the method: as §1

Test [6] has as its target T4, E. coli SASX38 strain having pBAtPX-RC with Arabidopsis thaliana resistant type protoporphyrinogen oxidase cDNA (Arabidopsis thaliana, UniProt P55826, A220V).
T4 construct: expressed in transfected cells; host or cells: E. coli SASX38 (hemG-deficient) carrying pBAtPX-RC (pBluescript SK(-))
Described as above. Format: cell-based. Here is the method:
as §1

T4 sequence (P55826 35-537 A220V): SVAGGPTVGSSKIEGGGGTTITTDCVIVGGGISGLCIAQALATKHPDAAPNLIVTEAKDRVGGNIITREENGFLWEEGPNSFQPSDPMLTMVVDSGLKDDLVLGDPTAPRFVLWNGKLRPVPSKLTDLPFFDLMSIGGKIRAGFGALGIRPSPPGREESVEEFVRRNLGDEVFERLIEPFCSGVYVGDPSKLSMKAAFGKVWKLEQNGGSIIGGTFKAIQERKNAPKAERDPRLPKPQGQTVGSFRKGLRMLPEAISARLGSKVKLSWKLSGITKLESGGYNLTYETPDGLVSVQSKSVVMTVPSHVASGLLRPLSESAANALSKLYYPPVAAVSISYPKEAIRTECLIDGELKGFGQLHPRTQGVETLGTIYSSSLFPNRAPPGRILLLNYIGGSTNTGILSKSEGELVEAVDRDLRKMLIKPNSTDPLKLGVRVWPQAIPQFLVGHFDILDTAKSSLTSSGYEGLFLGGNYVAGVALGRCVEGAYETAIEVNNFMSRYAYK

With `CCOC(=O)COc1cc(-c2nn(C)c(OC(F)F)c2Cl)c(F)cc1Cl` [Compound A, ethyl 2-chloro-5-(4-chloro-5-difluoromethoxy-1-methyl-1H-pyrazol-3-yl)-4-fluorophenoxyacetate], in test [1] (Introduced gene: None (reference)), the Resistance came to 1 X. For the same compound, in test [1] (Introduced gene: None, one week, continuous strong light), the “Permission conc. to compound A” value was 125 nM. The IC50 in test [2] was at least 10000 nM; in test [3], around 5 nM; in test [5], around 2.5 nM; in test [6], 1500 nM. The “R/S ratio (IC50 value of a resistant type/IC50 value in a wild type)” value in test [4] was “over 4,000”. In test [6] (Arabidopsis thaliana), the “R/S ratio (IC50 value of the resistant type/IC50 value of the wild type)” value is given as “about 300”.
